Peptide text beside a SMILES is read from it.
Assays:
[1] = Properties in quality of sweetness compared to sucrose (inventors' findings)
From the text: It is strong in astringency (astringent taste) and badly-balanced for quality of sweetness as compared to sucrose. On the other hand, with respect to APM, its properties for quality of sweetness is weak in early taste, and strong in later taste, although they are not so bad as those in N-(3,3-dimethylbuty)-APM. Therefore, any one of both compounds has the properties for quality of sweetness which is weak in early taste, and strong in later taste, and thus is out of quality of sweetness, taking into account the fact that sucrose is natural in sweetness.

[2] = relative to sucrose, by weight ratio; cited from earlier work

Row | SMILES | early taste (tastes sweet as early as sucrose) ([1]; quality of sweetness) | later taste (tastes sweet later than sucrose) ([1]; quality of sweetness) | quality of sweetness (balance) [1] | astringency (astringent taste) ([1]; quality of sweetness) | sweetening potency [2]
1 | COC(=O)[C@H](Cc1ccccc1)NC(=O)[C@@H](N)CC(=O)O [APM, aspartame] (H-Asp-Phe-OMe) | weak | strong |  |  | 
2 | COC(=O)[C@H](Cc1ccccc1)NC(=O)[C@H](CC(=O)O)NCCC(C)(C)C [N-(3,3-dimethylbutyl)-APM, N-[N-(3,3-dimethylbutyl)-L-α-aspartyl]-L-phenylalanine methyl ester] | extremely weak | extremely strong | badly-balanced | strong | 10,000 times by weight ratio that of

— patent US6346642B1, “Mixed crystals comprising aspartame and aspartame derivative and process for producing the same” (Ajinomoto Co., Inc., priority 1997, dated 2002)
